# Source: PubChem BioAssay AID256 (DTP/NCI, 2004)
# Where “and” joins values, the source holds several entries; their conditions need not be identical. Equal entries are not always repeated. Inconclusive results and toxic doses are left out.
# Test system: CD2F1 mice, L1210 leukemia ip, survival T/C
# Assay: NCI In Vivo Anticancer Drug Screen. Data for tumor model L1210 Leukemia (intraperitoneal) in CD2F1 (CDF1) mice
# Details: higher = longer survival
# How it was run: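 Compound-dosed mice with transplantable tumor versus matched vehicle controls; endpoint ratio T/C reported.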
structure (smiles),measurement,setting,value
CN(Cc1cnc2nc(N)nc(N)c2n1)c1ccc(C(=O)N[C@@H](CCC(=O)O)C(=O)O)cc1,T/C,"endpoint: mean survival time, dose: 0.13 mg/kg/injection, schedule: Q01DX009 (ip), vehicle: saline",119 % of control
same,T/C,"endpoint: mean survival time, dose: 0.19 mg/kg/injection, schedule: Q01DX009 (ip), vehicle: alkali diluted with saline",115 % of control
same,T/C,"endpoint: mean survival time, dose: 0.25 mg/kg/injection, schedule: Q01DX009 (ip), vehicle: sodium bicarbonate",115 % of control
same,T/C,"endpoint: mean survival time, dose: 0.25 mg/kg/injection, schedule: Q03HX008 (ip), vehicle: saline",122 % of control
same,T/C,"endpoint: mean survival time, dose: 0.38 mg/kg/injection, schedule: Q01DX009 (ip), vehicle: alkali diluted with saline",120 % of control
same,T/C,"endpoint: mean survival time, dose: 0.38 mg/kg/injection, schedule: Q01DX009 (ip), vehicle: other",154 % of control
same,T/C,"endpoint: mean survival time, dose: 0.44 mg/kg/injection, schedule: Q01DX009 (ip), vehicle: sodium bicarbonate",156 % of control
same,T/C,"endpoint: mean survival time, dose: 0.47 mg/kg/injection, schedule: Q01DX009 (ip), vehicle: sodium bicarbonate",160 % of control
same,T/C,"endpoint: mean survival time, dose: 0.5 mg/kg/injection, schedule: Q01DX005 (ip), vehicle: sodium bicarbonate",115 % of control and 122 % of control
same,T/C,"endpoint: mean survival time, dose: 0.5 mg/kg/injection, schedule: Q01DX007 (ip), vehicle: other",117 % of control
same,T/C,"endpoint: mean survival time, dose: 0.5 mg/kg/injection, schedule: Q01DX009 (ip), vehicle: saline",159 % of control
same,T/C,"endpoint: mean survival time, dose: 0.75 mg/kg/injection, schedule: Q01DX009 (ip), vehicle: alkali diluted with saline",152 % of control and 163 % of control
same,T/C,"endpoint: mean survival time, dose: 0.75 mg/kg/injection, schedule: Q01DX009 (ip), vehicle: other",154 % of control
same,T/C,"endpoint: mean survival time, dose: 0.78 mg/kg/injection, schedule: Q01DX009 (ip), vehicle: sodium bicarbonate",166 % of control
same,T/C,"endpoint: mean survival time, dose: 1.0 mg/kg/injection, schedule: Q01DX005 (ip), vehicle: sodium bicarbonate",113 % of control
same,T/C,"endpoint: mean survival time, dose: 1.0 mg/kg/injection, schedule: Q01DX009 (ip), vehicle: saline",171 % of control and 183 % of control
same,T/C,"endpoint: mean survival time, dose: 1.3 mg/kg/injection, schedule: Q01DX009 (ip), vehicle: sodium bicarbonate",181 % of control
same,T/C,"endpoint: mean survival time, dose: 1.5 mg/kg/injection, schedule: Q01DX009 (ip), vehicle: alkali diluted with saline",177 % of control and 178 % of control
same,T/C,"endpoint: mean survival time, dose: 1.5 mg/kg/injection, schedule: Q01DX009 (ip), vehicle: other",150 % of control and 164 % of control
same,T/C,"endpoint: mean survival time, dose: 2.0 mg/kg/injection, schedule: Q01DX007 (ip), vehicle: other",164 % of control
same,T/C,"endpoint: mean survival time, dose: 2.0 mg/kg/injection, schedule: Q01DX009 (ip), vehicle: saline",161 % of control
same,T/C,"endpoint: mean survival time, dose: 2.0 mg/kg/injection, schedule: Q02DX005 (ip), vehicle: sodium bicarbonate",170 % of control
same,T/C,"endpoint: mean survival time, dose: 2.0 mg/kg/injection, schedule: Q03DX003 (ip), vehicle: sodium bicarbonate",158 % of control
same,T/C,"endpoint: mean survival time, dose: 2.0 mg/kg/injection, schedule: Q04DX003 (ip), vehicle: sodium bicarbonate",160 % of control
same,T/C,"endpoint: mean survival time, dose: 2.16 mg/kg/injection, schedule: Q01DX009 (ip), vehicle: sodium bicarbonate",179 % of control
same,T/C,"endpoint: mean survival time, dose: 2.3 mg/kg/injection, schedule: Q01DX009 (ip), vehicle: sodium bicarbonate",164 % of control
same,T/C,"endpoint: mean survival time, dose: 2.3 mg/kg/injection, schedule: Q04DX003 (ip), vehicle: saline",114 % of control
same,T/C,"endpoint: mean survival time, dose: 2.5 mg/kg/injection, schedule: Q04DX003 (ip), vehicle: sodium bicarbonate",116 % of control
same,T/C,"endpoint: mean survival time, dose: 4.0 mg/kg/injection, schedule: Q01DX005 (ip), vehicle: sodium bicarbonate",160 % of control
same,T/C,"endpoint: mean survival time, dose: 4.0 mg/kg/injection, schedule: Q04DX003 (ip), vehicle: saline",166 % of control
same,T/C,"endpoint: mean survival time, dose: 4.0 mg/kg/injection, schedule: Q04DX003 (ip), vehicle: sodium bicarbonate",169 % of control
same,T/C,"endpoint: mean survival time, dose: 4.6 mg/kg/injection, schedule: Q04DX003 (ip), vehicle: saline",164 % of control
same,T/C,"endpoint: mean survival time, dose: 5.0 mg/kg/injection, schedule: Q04DX003 (ip), vehicle: alkali diluted with saline",156 % of control
same,T/C,"endpoint: mean survival time, dose: 5.0 mg/kg/injection, schedule: Q04DX003 (ip), vehicle: sodium bicarbonate",159 % of control
same,T/C,"endpoint: mean survival time, dose: 5.4 mg/kg/injection, schedule: Q04DX003 (ip), vehicle: sodium bicarbonate",165 % of control
same,T/C,"endpoint: mean survival time, dose: 8.0 mg/kg/injection, schedule: Q01DX001 (ip), vehicle: saline",116 % of control
same,T/C,"endpoint: mean survival time, dose: 8.0 mg/kg/injection, schedule: Q03DX003 (ip), vehicle: sodium bicarbonate",181 % of control
same,T/C,"endpoint: mean survival time, dose: 9.0 mg/kg/injection, schedule: Q04DX003 (ip), vehicle: sodium bicarbonate",176 % of control
same,T/C,"endpoint: mean survival time, dose: 9.2 mg/kg/injection, schedule: Q04DX003 (ip), vehicle: saline",175 % of control
same,T/C,"endpoint: mean survival time, dose: 10.0 mg/kg/injection, schedule: Q01DX005 (ip), vehicle: sodium bicarbonate",164 % of control
same,T/C,"endpoint: mean survival time, dose: 10.0 mg/kg/injection, schedule: Q04DX003 (ip), vehicle: alkali diluted with saline",154 % of control and 164 % of control
same,T/C,"endpoint: mean survival time, dose: 10.0 mg/kg/injection, schedule: Q04DX004 (ip), vehicle: sodium bicarbonate",165 % of control and 183 % of control
same,T/C,"endpoint: mean survival time, dose: 15.0 mg/kg/injection, schedule: Q04DX004 (ip), vehicle: sodium bicarbonate",168 % of control and 170 % of control
same,T/C,"endpoint: mean survival time, dose: 16.0 mg/kg/injection, schedule: Q04DX003 (ip), vehicle: saline",150 % of control
same,T/C,"endpoint: mean survival time, dose: 25.0 mg/kg/injection, schedule: Q04DX003 (ip), vehicle: sodium bicarbonate",174 % of control
same,T/C,"endpoint: mean survival time, dose: 25.0 mg/kg/injection, schedule: Q04DX004 (ip), vehicle: sodium bicarbonate",175 % of control
same,T/C,"endpoint: mean survival time, dose: 32.0 mg/kg/injection, schedule: Q04DX003 (ip), vehicle: saline",174 % of control
same,T/C,"endpoint: mean survival time, dose: 35.0 mg/kg/injection, schedule: Q04DX003 (ip), vehicle: sodium bicarbonate",175 % of control
same,T/C,"endpoint: mean survival time, dose: 36.8 mg/kg/injection, schedule: Q04DX003 (ip), vehicle: saline",159 % of control
same,T/C,"endpoint: mean survival time, dose: 41.7 mg/kg/injection, schedule: Q04DX003 (ip), vehicle: sodium bicarbonate",116 % of control
same,T/C,"endpoint: mean survival time, dose: 64.0 mg/kg/injection, schedule: Q04DX003 (ip), vehicle: saline",120 % of control
same,T/C,"endpoint: mean survival time, dose: 73.5 mg/kg/injection, schedule: Q04DX003 (ip), vehicle: saline",124 % of control
same,T/C,"endpoint: mean survival time, dose: 128.0 mg/kg/injection, schedule: Q04DX003 (ip), vehicle: saline",120 % of control
same,T/C,"endpoint: median survival time, dose: 0.5 mg/kg/injection, schedule: Q01DX005 (ip), vehicle: sodium bicarbonate",113 % of control
same,T/C,"endpoint: median survival time, dose: 0.52 mg/kg/injection, schedule: Q01DX009 (ip), vehicle: sodium bicarbonate",152 % of control
same,T/C,"endpoint: median survival time, dose: 0.6 mg/kg/injection, schedule: Q06HX024 (ip), vehicle: saline",116 % of control
same,T/C,"endpoint: median survival time, dose: 0.86 mg/kg/injection, schedule: Q01DX009 (ip), vehicle: sodium bicarbonate",165 % of control
same,T/C,"endpoint: median survival time, dose: 1.0 mg/kg/injection, schedule: Q01DX005 (ip), vehicle: sodium bicarbonate",124 % of control
same,T/C,"endpoint: median survival time, dose: 1.25 mg/kg/injection, schedule: Q01DX009 (ip), vehicle: sodium bicarbonate",173 % of control and 178 % of control
same,T/C,"endpoint: median survival time, dose: 1.56 mg/kg/injection, schedule: Q01DX009 (ip), vehicle: sodium bicarbonate",171 % of control
same,T/C,"endpoint: median survival time, dose: 2.5 mg/kg/injection, schedule: Q01DX009 (ip), vehicle: sodium bicarbonate",182 % of control
same,T/C,"endpoint: median survival time, dose: 3.0 mg/kg/injection, schedule: Q01DX005 (ip), vehicle: sodium bicarbonate",160 % of control and 175 % of control
same,T/C,"endpoint: median survival time, dose: 3.0 mg/kg/injection, schedule: Q01DX009 (ip), vehicle: sodium bicarbonate",156 % of control
same,T/C,"endpoint: median survival time, dose: 4.0 mg/kg/injection, schedule: Q01DX005 (ip), vehicle: sodium bicarbonate",168 % of control and 181 % of control
same,T/C,"endpoint: median survival time, dose: 4.5 mg/kg/injection, schedule: Q01DX005 (ip), vehicle: sodium bicarbonate",169 % of control (2×) and 183 % of control
same,T/C,"endpoint: median survival time, dose: 5.4 mg/kg/injection, schedule: Q04DX003 (ip), vehicle: sodium bicarbonate",163 % of control and 168 % of control
same,T/C,"endpoint: median survival time, dose: 6.0 mg/kg/injection, schedule: Q01DX005 (ip), vehicle: sodium bicarbonate",171 % of control and 179 % of control
same,T/C,"endpoint: median survival time, dose: 9.0 mg/kg/injection, schedule: Q04DX003 (ip), vehicle: sodium bicarbonate",175 % of control
same,T/C,"endpoint: median survival time, dose: 12.5 mg/kg/injection, schedule: Q01DX001 (ip), vehicle: sodium bicarbonate",116 % of control
same,T/C,"endpoint: median survival time, dose: 15.0 mg/kg/injection, schedule: Q04DX003 (ip), vehicle: sodium bicarbonate",175 % of control
same,T/C,"endpoint: median survival time, dose: 25.0 mg/kg/injection, schedule: Q04DX003 (ip), vehicle: sodium bicarbonate",173 % of control
same,T/C,"endpoint: median survival time, dose: 72.0 mg/kg/injection, schedule: Q01DX001 (ip), vehicle: sodium bicarbonate",113 % of control and 122 % of control
same,T/C,"endpoint: median survival time, dose: 400.0 mg/kg/injection, schedule: Q01DX001 (ip), vehicle: sodium bicarbonate",177 % of control
